Results: US20100261690A1, “NOVEL COMBINATIONS” (ASTRAZENECA R&D, priority 2009, published 2010)

System: LPS-induced TNFα production in human peripheral blood mononuclear cells (PBMCs)
Test: Inhibition of LPS-induced TNFα production in human peripheral blood mononuclear cells (AlphaLISA)
Format: cell-based
Settings: PBMC
Description: Inhibition of Lipopolysaccharride (LPS)-Induced TNFα Production in Human Peripheral Blood Mononuclear Cells
Human isolated peripheral blood mononuclear cells (PBMCs) were pre-incubated with a range of concentrations of the GR agonist (1R,3aS,3bS,10aR,10bS,11S,12aS)-1-{[(cyanomethyl)sulfanyl]carbonyl}-7-(4-fluorophenyl)-11-hydroxy-10a,12a-dimethyl-1,2,3,3a,3b,4,5,7,10,10a,10b,11,12,12a-tetradecahydrocyclopenta[5,6]naphtho[1,2-f]indazol-1-yl furan-2-carboxylate (Compound A), alone or in the presence of a range of concentrations of a second compound with a distinct pharmacological activity for 45 minutes at 37° C. After the pre-incubation period, the cells were then incubated with LPS (5 ng/mL) for 18 hr at 37° C. to induce TNFα production. The total assay volume was 200 μL. At the end of the incubation period, 10 μL of the culture supernatant diluted 1:5 was analysed to quantify the TNFα released using AlphaLISA (PerkinElmer). The fluorescence was detected on an EnVision Alphareader. Inhibition curves were fitted using a 4-parameter logistic equation in a non-linear curve fitting routine and activity was expressed as pIC50.
In each table, the data represents the mean of two separate experiments using PBMC from healthy blood donors (n=2).

SMILES	IC50 (read-out: pIC50 for inhibition of LPS-induced TNFα production from human PBMC (converted))	inhibition at 1 µM (Compound A 1000 nM in combination with the listed second compound at 1 μM, mean n=2, read-out: % inhibition @ 1000 nM (maximal inhibition))
C[C@]12Cc3cnn(-c4ccc(F)cc4)c3C=C1CC[C@@H]1[C@@H]2[C@@H](O)C[C@@]2(C)[C@H]1CC[C@]2(OC(=O)c1ccco1)C(=O)SCC#N [Compound A, (1R,3aS,3bS,10aR,10bS,11S,12aS)-1-{[(cyanomethyl)sulfanyl]carbonyl}-7-(4-fluorophenyl)-11-hydroxy-10a,12a-dimethyl-1,2,3,3a,3b,4,5,7,10,10a,10b,11,12,12a-tetradecahydrocyclopenta[5,6]naphtho[1,2-f]indazol-1-yl furan-2-carboxylate]	0.708 nM	
CNCCOc1ccccc1C1(Nc2nccn(-c3cc(C(=O)NC4CC4)cc(F)c3C)c2=O)CC1 [Compound E, N-cyclopropyl-3-fluoro-4-methyl-5-{3-[(1-{2-[2-(methylamino)ethoxy]phenyl}cyclopropyl)amino]-2-oxopyrazin-1(2H)-yl}benzamide]		99.4%
